{
  "source": "ChEMBL document CHEMBL3259638",
  "about": "“Preliminary investigations into triazole derived androgen receptor antagonists” (Bioorg Med Chem, 2014)",
  "key": {"PC-3": {"system": "PC-3", "assay": "Cytotoxicity against human PC3 cells assessed growth inhibition", "format": "functional, cell-based"}, "LNCaP": {"system": "LNCaP", "assay": "Cytotoxicity against human LNCAP cells", "format": "cell-based"}},
  "data": [
    {"compound": "CC(C)(O)c1cn(-c2ccc(Cl)c(C(F)(F)F)c2)nn1", "values": [
      {"measurement": "IC50", "setting": "PC-3", "value": 69, "unit": "µM"}
    ]},
    {"compound": "CC(C)(O)c1cn(-c2ccc(C#N)c(C(F)(F)F)c2)nn1", "values": [
      {"measurement": "Activity", "setting": "LNCaP", "value": "Toxic"}
    ]},
    {"compound": "CC(C)(O)c1cn(-c2ccc([N+](=O)[O-])c(C(F)(F)F)c2)nn1", "values": [
      {"measurement": "IC50", "setting": "PC-3", "value": 63, "unit": "µM"}
    ]},
    {"compound": "CC(C)(O)c1cn(-c2cc(C(F)(F)F)cc(C(F)(F)F)c2)nn1", "values": [
      {"measurement": "IC50", "setting": "PC-3", "value": 42, "unit": "µM"}
    ]}
  ]
}
